Measurements published in the supplement of paper PMC11061612.

Legend:
Carboplatin = compound: C1CC(C1)(C(=O)[O-])C(=O)[O-].N.N.[Pt+2] [Carboplatin]; conditions: max 10 µM
Procedure, shortened: (§1)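 Cancer cell lines were seeded in 1536-well plates in 7.5 μl DMEM/F12 or RPMI with 10% FBS, held 24 hours at 37°C and 5% CO2, then dosed for 72 hours (final DMSO typically 0.2%). Viability was read by CellTiter-Glo 2.0 luminescence and scaled between blank-well and DMSO-well means. The single-agent IC50 comes from dose responses fitted to a two-parameter logistic curve with a non-linear mixed effects model.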

AZD5363 = compound: C1CN(CCC1(C(=O)N[C@@H](CCO)C2=CC=C(C=C2)Cl)N)C3=NC=NC4=C3C=CN4 [AZD5363]; conditions: max 10 µM
Procedure, shortened: as §1

AZD1775 = compound: C=CCn1c(=O)c2cnc(Nc3ccc(N4CCN(C)CC4)cc3)nc2n1-c1cccc(C(C)(C)O)n1 [AZD1775]; conditions: max 3 µM
Procedure, shortened: as §1

Trametinib = compound: CC(=O)Nc1cccc(-n2c(=O)n(C3CC3)c(=O)c3c(Nc4ccc(I)cc4F)n(C)c(=O)c(C)c32)c1 [Trametinib]; conditions: max 1 µM
Procedure, shortened: as §1

Paclitaxel = compound: CC(=O)O[C@H]1C(=O)[C@@]2(C)[C@H]([C@H](OC(=O)c3ccccc3)[C@]3(O)C[C@H](OC(=O)[C@H](O)[C@@H](NC(=O)c4ccccc4)c4ccccc4)C(C)=C1C3(C)C)[C@]1(OC(C)=O)CO[C@@H]1C[C@@H]2O [Paclitaxel]; conditions: max 3 µM
Procedure, shortened: as §1

Palbociclib = compound: CC(=O)c1c(C)c2cnc(Nc3ccc(N4CCNCC4)cn3)nc2n(C2CCCC2)c1=O [Palbociclib]; conditions: max 10 µM
Procedure, shortened: as §1

AZD1390 = compound: CC(C)n1c(=O)n(C)c2cnc3cc(F)c(-c4ccc(OCCCN5CCCCC5)nc4)cc3c21 [AZD1390]; conditions: max 0.3 µM
Procedure, shortened: as §1

Venetoclax = compound: CC1(C)CCC(CN2CCN(c3ccc(C(=O)NS(=O)(=O)c4ccc(NCC5CCOCC5)c([N+](=O)[O-])c4)c(Oc4cnc5[nH]ccc5c4)c3)CC2)=C(c2ccc(Cl)cc2)C1 [Venetoclax]; conditions: max 1 µM
Procedure, shortened: as §1

Dasatinib = compound: CC1=C(C(=CC=C1)Cl)NC(=O)C2=CN=C(S2)NC3=CC(=NC(=N3)C)N4CCN(CC4)CCO [Dasatinib]; conditions: max 2 µM
Procedure, shortened: as §1

SG3199 = compound: CC1=CN2[C@@H](C1)C=NC3=CC(=C(C=C3C2=O)OC)OCCCCCOC4=C(C=C5C(=C4)N=C[C@@H]6CC(=CN6C5=O)C)OC [SG3199]; conditions: max 0.001 µM
Procedure, shortened: as §1

AZD2811 = compound: CCN(CCO)CCCOc1ccc2c(Nc3cc(CC(=O)Nc4cccc(F)c4)[nH]n3)ncnc2c1 [AZD2811]; conditions: max 1 µM
Procedure, shortened: as §1

SN-38 = compound: CCc1c2c(nc3ccc(O)cc13)-c1cc3c(c(=O)n1C2)COC(=O)[C@]3(O)CC [SN-38]; conditions: max 0.3 µM
Procedure, shortened: as §1

AZD0156 = compound: CN(C)CCCOc1ccc(-c2ccc3ncc4c(c3c2)n(C2CCOCC2)c(=O)n4C)cn1 [AZD0156]; conditions: max 3 µM
Procedure, shortened: as §1

AZD4320 = compound: CN(CC[C@H](CSC1=CC=CC=C1)NC2=C(C=C(C=C2)S(=O)(=O)NC(=O)C3=CC=C(C=C3)N4CCC(CC4)[C@H](C5=CC=CC=C5C6=CC=C(C=C6)Cl)O)S(=O)(=O)C(F)(F)F)CCO [AZD4320]; conditions: max 1 µM
Procedure, shortened: as §1

Alisertib = compound: COc1cc(Nc2ncc3c(n2)-c2ccc(Cl)cc2C(c2c(F)cccc2OC)=NC3)ccc1C(=O)O [Alisertib]; conditions: max 10 µM
Procedure, shortened: as §1

Etoposide = compound: COc1cc([C@@H]2c3cc4c(cc3[C@@H](O[C@@H]3O[C@@H]5CO[C@@H](C)O[C@H]5[C@H](O)[C@H]3O)[C@H]3COC(=O)[C@H]23)OCO4)cc(OC)c1O [Etoposide]; conditions: max 10 µM
Procedure, shortened: as §1

Gefitinib = compound: COc1cc2ncnc(Nc3ccc(F)c(Cl)c3)c2cc1OCCCN1CCOCC1 [Gefitinib]; conditions: max 10 µM
Procedure, shortened: as §1

Prexasertib = compound: COc1cccc(OCCCN)c1-c1cc(Nc2cnc(C#N)cn2)n[nH]1 [Prexasertib]; conditions: max 1 µM
Procedure, shortened: as §1

Doxorubicin = compound: COc1cccc2c1C(=O)c1c(O)c3c(c(O)c1C2=O)C[C@@](O)(C(=O)CO)C[C@@H]3O[C@H]1C[C@H](N)[C@H](O)[C@H](C)O1 [Doxorubicin]; conditions: max 1 µM
Procedure, shortened: as §1

AZD5153 = compound: COc1nnc2ccc(N3CCC(c4ccc(OCCN5CCN(C)C(=O)[C@H]5C)cc4)CC3)nn12 [AZD5153]; conditions: max 1 µM
Procedure, shortened: as §1

Lapatinib = compound: CS(=O)(=O)CCNCc1ccc(-c2ccc3ncnc(Nc4ccc(OCc5cccc(F)c5)c(Cl)c4)c3c2)o1 [Lapatinib]; conditions: max 10 µM
Procedure, shortened: as §1

AZD8186 = compound: C[C@@H](Nc1cc(F)cc(F)c1)c1cc(C(=O)N(C)C)cc2c(=O)cc(N3CCOCC3)oc12 [AZD8186]; conditions: max 10 µM
Procedure, shortened: as §1

Crizotinib = compound: C[C@@H](Oc1cc(-c2cnn(C3CCNCC3)c2)cnc1N)c1c(Cl)ccc(F)c1Cl [Crizotinib]; conditions: max 10 µM
Procedure, shortened: as §1

Savolitinib = compound: C[C@@H](c1ccc2nccn2c1)n1nnc2ncc(-c3cnn(C)c3)nc21 [Savolitinib]; conditions: max 1 µM
Procedure, shortened: as §1

AZD6738 = compound: C[C@@H]1COCCN1C2=NC(=NC(=C2)C3(CC3)[S@](=N)(=O)C)C4=C5C=CNC5=NC=C4 [AZD6738]; conditions: max 10 µM
Procedure, shortened: as §1

AZD5991 = compound: Cc1c2c(nn1C)CSCc1cc(n(C)n1)CSc1cc(c3ccccc3c1)OCCCc1c(C(=O)O)n(C)c3c-2c(Cl)ccc13 [AZD5991]; conditions: max 1 µM
Procedure, shortened: as §1

AZD7648 = compound: Cc1cc2ncnn2cc1Nc1ncc2c(n1)n(C1CCOCC1)c(=O)n2C [AZD7648]; conditions: max 10 µM
Procedure, shortened: as §1

Taselisib = compound: Cc1nc(-c2cn3c(n2)-c2ccc(-c4cnn(C(C)(C)C(N)=O)c4)cc2OCC3)n(C(C)C)n1 [Taselisib]; conditions: max 10 µM
Procedure, shortened: as §1

Selumetinib = compound: Cn1cnc2c(F)c(Nc3ccc(Br)cc3Cl)c(C(=O)NOCCO)cc21 [Selumetinib]; conditions: max 10 µM
Procedure, shortened: as §1

SRA737 = compound: N#Cc1cnc(Nc2cc(NC[C@H]3CNCCO3)c(C(F)(F)F)cn2)cn1 [SRA737]; conditions: max 10 µM
Procedure, shortened: as §1

MK-2206 = compound: NC1(c2ccc(-c3nc4ccn5c(=O)[nH]nc5c4cc3-c3ccccc3)cc2)CCC1 [MK-2206]; conditions: max 10 µM
Procedure, shortened: as §1

Gemcitabine = compound: Nc1ccn([C@@H]2O[C@H](CO)[C@@H](O)C2(F)F)c(=O)n1 [Gemcitabine]; conditions: max 0.3 µM
Procedure, shortened: as §1

[1] = compound: O=C(Nc1ccc2[nH]nc(-c3ccncc3)c2c1)[C@@H]1CCN(CC(=O)N2CCN(c3ccc(-c4ncccn4)cc3)CC2)C1; conditions: max 5 µM
Procedure, shortened: as §1

Olaparib = compound: O=C(c1cc(Cc2n[nH]c(=O)c3ccccc23)ccc1F)N1CCN(C(=O)C2CC2)CC1 [Olaparib]; conditions: max 10 µM
Procedure, shortened: as §1

5-Fluorouracil = compound: O=c1[nH]cc(F)c(=O)[nH]1 [5-Fluorouracil]; conditions: max 20 µM
Procedure, shortened: as §1

Cell Line	IC50, cell viability 72 h (Carboplatin) [nM]	IC50, cell viability 72 h (AZD5363) [nM]	IC50, cell viability 72 h (AZD1775) [nM]	IC50, cell viability 72 h (Trametinib) [nM]	IC50, cell viability 72 h (Paclitaxel) [nM]	IC50, cell viability 72 h (Palbociclib) [nM]	IC50, cell viability 72 h (AZD1390) [nM]	IC50, cell viability 72 h (Venetoclax) [nM]	IC50, cell viability 72 h (Dasatinib) [nM]	IC50, cell viability 72 h (SG3199) [nM]	IC50, cell viability 72 h (AZD2811) [nM]	IC50, cell viability 72 h (SN-38) [nM]	IC50, cell viability 72 h (AZD0156) [nM]	IC50, cell viability 72 h (AZD4320) [nM]	IC50, cell viability 72 h (Alisertib) [nM]	IC50, cell viability 72 h (Etoposide) [nM]	IC50, cell viability 72 h (Gefitinib) [nM]	IC50, cell viability 72 h (Prexasertib) [nM]	IC50, cell viability 72 h (Doxorubicin) [nM]	IC50, cell viability 72 h (AZD5153) [nM]	IC50, cell viability 72 h (Lapatinib) [nM]	IC50, cell viability 72 h (AZD8186) [nM]	IC50, cell viability 72 h (Crizotinib) [nM]	IC50, cell viability 72 h (Savolitinib) [nM]	IC50, cell viability 72 h (AZD6738) [nM]	IC50, cell viability 72 h (AZD5991) [nM]	IC50, cell viability 72 h (AZD7648) [nM]	IC50, cell viability 72 h (Taselisib) [nM]	IC50, cell viability 72 h (Selumetinib) [nM]	IC50, cell viability 72 h (SRA737) [nM]	IC50, cell viability 72 h (MK-2206) [nM]	IC50, cell viability 72 h (Gemcitabine) [nM]	IC50, cell viability 72 h [1] [nM]	IC50, cell viability 72 h (Olaparib) [nM]	IC50, cell viability 72 h (5-Fluorouracil) [nM]
SKG-IIIa (Cervical Carcinoma)	> 10000	> 10000	> 3000	> 1000	854	> 10000	> 300	> 1000	> 2000	> 1	> 1000	> 300	> 3000	> 1000	> 10000	> 10000	> 10000	> 1000	> 1000	> 1000	> 10000	> 10000	> 10000	> 1000	> 10000	> 1000	> 10000	> 10000	> 10000	> 10000	> 10000	> 300	> 5000	> 10000	> 20000
SNU-423 (Hepatocellular Carcinoma)	> 10000	> 10000	2150	> 1000	124	> 10000	> 300	> 1000	> 2000	> 1	> 1000	> 300	> 3000	> 1000	> 10000	> 10000	> 10000	166	> 1000	> 1000	> 10000	> 10000	> 10000	> 1000	> 10000	> 1000	> 10000	> 10000	> 10000	> 10000	> 10000	> 300	> 5000	> 10000	> 20000
T84 (Colorectal Carcinoma)	> 10000	> 10000	1310	804	548	> 10000	> 300	> 1000	> 2000	> 1	> 1000	131	> 3000	> 1000	> 10000	> 10000	> 10000	89.7	> 1000	> 1000	> 10000	> 10000	> 10000	> 1000	6780	> 1000	> 10000	4660	> 10000	4610	> 10000	276	> 5000	> 10000	> 20000
